Source: PubChem BioAssay (NCI)
“And” between values parts separate entries of the source, which are not always exact repeats. Equal entries are not always repeated.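 48-hour exposure; five concentrations; linearly interpolated endpoints. At the GI50, growth is halved. TGI marks complete inhibition of growth.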

Columns and labels:
Experiment in all cases: NCI tumour cell line growth inhibition, 48 h
[1] = tested on: SF-268 CNS
[2] = tested on: CAKI-1 renal
[3] = tested on: DU-145 prostate
[4] = tested on: PC-3 prostate
[5] = tested on: UACC-257 melanoma
[6] = tested on: HS 578T breast
[7] = tested on: SF-295 CNS
[8] = tested on: OVCAR-3 ovarian
[9] = tested on: OVCAR-8 ovarian
[10] = tested on: HOP-92 NSCLC

Structure (SMILES)	GI50 [1] [µM]	TGI [1] [µM]	GI50 [2] [µM]	TGI [2]	GI50 [3] [µM]	TGI [3] [µM]	GI50 [4] [µM]	TGI [4] [µM]	GI50 [5] [µM]	TGI [5] [µM]	GI50 [6] [µM]	TGI [6] [µM]	GI50 [7] [µM]	TGI [7] [µM]	GI50 [8] [µM]	TGI [8] [µM]	GI50 [9]	TGI [9]	GI50 [10] [µM]	TGI [10]
O=S(=O)(/N=c1/scc(-c2ccccc2)n1-c1ccccc1)c1ccc(N2N=C3c4ccccc4CC3C2c2cccs2)cc1 (stereo unspecified)	> 100	> 100	73	> 100 µM	> 100	> 100	75	> 100	> 100	> 100	60.6	> 100	54.5	> 100	> 100	> 100	47.2 µM	> 100 µM	> 100	> 100 µM
O=C1c2cccc(NCCN=Cc3ccccc3O)c2C(=O)c2c(NCCN=Cc3ccccc3O)cccc21	0.349	1.46	0.953	4.82 µM	0.364	1.55	1.03	5.87	1.44	4.3	0.838	3.98	0.409	1.88	0.514	2.09	0.369 µM	2.47 µM	0.584	2.49 µM
CCCCCCCCn1ccc2cc(NC(=O)Cn3cc(CN4CCCCC4)nn3)ccc21	2.05	4.51	1.52	2.99 µM	4.1	14.4	1.43	3.05	2.01	4.45	1.96	4.84	1.81	3.65	3.42	13.3	2.98 µM	9.3 µM	0.601	2.21 µM
COc1cc(/C=C2\C[C@H]3[C@@H]4CC=C5C[C@@H](O)CC[C@]5(C)[C@H]4CC[C@]3(C)[C@H]2O)ccc1OCCCn1ccnc1	3.82	19.2	1.81	7.86 µM	1.92	7.45	1.45	5.03	6.3	15.4	1.18	4.24	1.55	6.32	0.946	2.9	2.62 µM	16.1 µM	4.44	12.5 µM
Cc1ccc(Cl)c(Nc2ccccc2C(=O)O)c1Cl	31.8	> 100	34.6	> 100 µM	28.9	71.8	29.9	> 100	27.4	> 100	25.7	> 100	25.3	76	20.3	37.9	29.6 µM	> 100 µM	16.2	50 µM
O=c1ssc(Cl)c1Cl		> 10		> 10 µM		> 10		> 10		> 10		> 10		> 10		> 10		> 10 µM		> 10 µM
CCOc1cccc(-c2nc(N)nc(Nc3ccccc3SSc3ccccc3Nc3nc(N)nc(-c4cccc(OCC)c4)n3)n2)c1	3.84	> 100	3.29	28.3 µM	7.5	> 100	0.671	15.3	> 100	> 100	6.37	> 100	3.92	> 100	5.37	> 100	4.43 µM	> 100 µM	2.77	9.86 µM
CC(C)(C)c1c2c(c(C(C)(C)C)c3c1OCN(Cc1ccccc1)C3)OCN(Cc1ccccc1)C2		35.6		> 100 µM		59.7		38		29.1		55.9		51.6		32.4		77.3 µM		28.1 µM
Cn1c(NCC(O)CN2CCCC2)cc(=O)n(C)c1=O (stereo unspecified)	> 100	> 100	> 100	> 100 µM	> 100	> 100	> 100	> 100	> 100	> 100	> 100	> 100	> 100	> 100	> 100	> 100	> 100 µM	> 100 µM	> 100	> 100 µM
O=C1c2ccccc2-c2c1c1ccccc1c(=O)n2CCCNCCCCNCCCN1C(=O)c2ccccc2C2C(=O)c3ccccc3C21 (stereo unspecified)	0.238	1.42	0.447	1.13 µM	0.127	0.837	0.512	1.24	3.86	11.7	0.739	2.08	0.0647	0.872	0.212	0.87	0.0241 µM	0.986 µM	0.00829	0.0428 µM
O=C(O)c1ccc(C(=O)O)c(C(=O)Nc2ccc3c(c2)C(=O)c2ccccc2-3)c1		> 100		> 100 µM		> 100		> 100		> 100		> 100		> 100		> 100		> 100 µM		> 100 µM
COc1ccc(C2C(C)C(=O)C(C)C(c3ccc(OC)cc3)N2N=O)cc1 (stereo unspecified)	78.1	> 1000	50.1	750 µM and 577 µM		637		> 1000		> 1000		890	20.7	491	> 750	> 1000	30.5 µM and 248 µM	750 µM and > 1000 µM	> 47.9	> 80.9 µM and 190 µM and 149 µM
CC1(C)[C@@H](OC(=O)CCC(=O)O)CC[C@]2(C)[C@H]3C(=O)C=C4[C@@H]5C[C@@](C)(C(=O)O)CC[C@]5(C)CC[C@@]4(C)[C@]3(C)CC[C@@H]12	55.7	143	61.6	157 µM	58.3	142	56	127	66.2	91.4	49.6	253	48.7	65	50.4	62.9	59.1 µM	154 µM	58.6	87.2 µM
